Measurements reported in ChEMBL document CHEMBL1149393, “Single-site chemical modification at C10 of the baccatin III core of paclitaxel and Taxol C reduces P-glycoprotein interactions in bovine brain microvessel endothelial cells” (Bioorg Med Chem Lett, 2006).

What was measured:
Tubulin (Homo sapiens) [1] = target: T1, Tubulin (Homo sapiens) (UniProt P68371+Q9H4B7+P0DPH7+P68366+Q13509+Q71U36+P04350+Q3ZCM7+P07437+P68363+Q9BQE3+Q6PEY2+Q13885+Q9BVA1+Q9BUF5); experiment: Cytotoxicity against human breast cancer MCF7 cell line relative to paclitaxel; format: functional, cell-based
Tubulin (Homo sapiens) [2] = target: T1, Tubulin (Homo sapiens); experiment: Activity in tubulin assembly assay relative to paclitaxel; format: functional
Tubulin (Homo sapiens) [3] = target: T1, Tubulin (Homo sapiens); experiment: Cytotoxicity against multidrug resistant breast cancer MCF7/ADR cell line relative to paclitaxel; format: functional, cell-based; settings: NCI/ADR-RES
MCF7 = experiment: Cytotoxicity against human breast cancer MCF7 cell line; format: functional; settings: read-out: ED50 (the source's name)
NCI/ADR-RES = experiment: Cytotoxicity against multidrug resistant breast cancer MCF7/ADR cell line; format: functional; settings: Homo sapiens, read-out: ED50 (the source's name)

| Ratio ED50 (Tubulin (Homo sapiens) [2]) | Compound | Ratio ED50 (Tubulin (Homo sapiens) [1]) | Ratio ED50 (Tubulin (Homo sapiens) [3]) | EC50 (MCF7) | EC50 (NCI/ADR-RES) |
| --- | --- | --- | --- | --- | --- |
| 0.8 | CC(=O)O[C@@H]1C(=O)[C@@]2(C)[C@H]([C@H](OC(=O)c3ccccc3)[C@]3(O)C[C@H](OC(=O)[C@H](O)[C@@H](NC(=O)c4ccccc4)c4ccccc4)C(C)=C1C3(C)C)[C@]1(OC(C)=O)CO[C@@H]1C[C@@H]2O | 0.7 | 1.3 |  |  |
| 2 | CCCCCC(=O)N[C@@H](c1ccccc1)[C@@H](O)C(=O)O[C@H]1C[C@@]2(O)[C@@H](OC(=O)c3ccccc3)[C@@H]3[C@]4(OC(C)=O)CO[C@@H]4C[C@H](O)[C@@]3(C)C(=O)[C@H](OC(C)=O)C(=C1C)C2(C)C | 2.2 | 0.48 |  |  |
| 0.21 | CCCCCC(=O)N[C@@H](c1ccccc1)[C@@H](O)C(=O)O[C@H]1C[C@@]2(O)[C@@H](OC(=O)c3ccccc3)[C@@H]3[C@]4(OC(C)=O)CO[C@@H]4C[C@H](O)[C@@]3(C)C(=O)[C@@H](OC(C)=O)C(=C1C)C2(C)C | 3.2 | 1.6 |  |  |
| 1 | CC(=O)O[C@H]1C(=O)[C@@]2(C)[C@H]([C@H](OC(=O)c3ccccc3)[C@]3(O)C[C@H](OC(=O)[C@H](O)[C@@H](NC(=O)c4ccccc4)c4ccccc4)C(C)=C1C3(C)C)[C@]1(OC(C)=O)CO[C@@H]1C[C@@H]2O [PACLITAXEL] |  |  | 3.23 nM | 1.53 nM |
| 4.1 | CCC(=O)O[C@@H]1C(=O)[C@@]2(C)[C@H]([C@H](OC(=O)c3ccccc3)[C@]3(O)C[C@H](OC(=O)[C@H](O)[C@@H](NC(=O)c4ccccc4)c4ccccc4)C(C)=C1C3(C)C)[C@]1(OC(C)=O)CO[C@@H]1C[C@@H]2O | 2.6 | 1.1 |  |  |
| 2.2 | CCCCCC(=O)N[C@@H](c1ccccc1)[C@@H](O)C(=O)O[C@H]1C[C@@]2(O)[C@@H](OC(=O)c3ccccc3)[C@@H]3[C@]4(OC(C)=O)CO[C@@H]4C[C@H](O)[C@@]3(C)C(=O)[C@H](O)C(=C1C)C2(C)C | 4.8 | 3.8 |  |  |
| 2.1 | CCCCCC(=O)N[C@@H](c1ccccc1)[C@@H](O)C(=O)O[C@H]1C[C@@]2(O)[C@@H](OC(=O)c3ccccc3)[C@@H]3[C@]4(OC(C)=O)CO[C@@H]4C[C@H](O)[C@@]3(C)C(=O)[C@@H](OC(=O)CC)C(=C1C)C2(C)C | 3.8 | 2.9 |  |  |
| 1.6 | CCCCCC(=O)N[C@@H](c1ccccc1)[C@@H](O)C(=O)O[C@H]1C[C@@]2(O)[C@@H](OC(=O)c3ccccc3)[C@@H]3[C@]4(OC(C)=O)CO[C@@H]4C[C@H](O)[C@@]3(C)C(=O)[C@@H](O)C(=C1C)C2(C)C | 9.2 | 3.1 |  |  |

| Compound | Ratio ED50 (Tubulin (Homo sapiens) [2]) | Ratio ED50 (Tubulin (Homo sapiens) [1]) | Ratio ED50 (Tubulin (Homo sapiens) [3]) | EC50 (MCF7) | EC50 (NCI/ADR-RES) |
| --- | --- | --- | --- | --- | --- |
| CC(=O)O[C@@]12CO[C@@H]1C[C@H](O)[C@@]1(C)C(=O)[C@@H](O)C3=C(C)[C@@H](OC(=O)[C@H](O)[C@@H](NC(=O)c4ccccc4)c4ccccc4)C[C@@](O)([C@@H](OC(=O)c4ccccc4)[C@H]21)C3(C)C | 3.2 | 1.4 | 0.7 |  |  |
| CC(=O)O[C@@]12CO[C@@H]1C[C@H](O)[C@@]1(C)C(=O)[C@H](O)C3=C(C)[C@@H](OC(=O)[C@H](O)[C@@H](NC(=O)c4ccccc4)c4ccccc4)C[C@@](O)([C@@H](OC(=O)c4ccccc4)[C@H]21)C3(C)C | 2.1 | 7.5 | 6.6 |  |  |
